In patent publication US12378220B2, “WNT signaling pathway inhibitors for treatments of disease” (University of Maryland, Baltimore, priority 2016, dated 2025):
“Also recorded” adds a separate entry of the source.

What was measured:
Wnt/β-catenin pathway = test: dual-luciferase TCF/LEF reporter assay, LiCl-activated, HEK293 cells; assay type: cell-based; settings: Homo sapiens
[1] = tested on: Madin-Darby Canine Kidney (MDCK) epithelial cell monolayer; test: permeability across MDCK monolayer on transwell plates; assay type: in vitro ADME; settings: data not shown
A549 cells = test: quantitative real-time RT-PCR of Wnt regulated genes; assay type: cell-based, human
Method: (§1) Quantitative Real-time RT-PCR. The total RNA extracted from the cells using TRIzol (Invitrogen) and 2 μg was reverse transcribed in a 20-μl volume system (QuantiTect Reverse Transcription Kit (Qiagen)) for quantitative PCR assays. SYBR green quantitative real-time PCR analyses were carried out using gene-specific primers (working concentration at 250 nM) in StepOnePlus real time PCR system (Applied Biosystems, AB), using the housekeeping gene GAPDH as an internal control. The PCR running procedure was as follows: 4 min denaturing at 95° C., followed by 40 cycles of 30 seconds of denaturing at 95° C. and then annealing and extension at 60° C. for 1 min.

SW620 cells [2] = test: as above; assay type: cell-based, human
Method: as §1

WiDr cells = test: as above; assay type: cell-based, human
Method: as §1

SW480 cells [3] = test: Western blot of Wnt signaling proteins; assay type: cell-based, human; settings: 48 h
Method: Using a Wester Blot, compounds YW2013 and YW2123 were tested in SW480 cells to determine their effect on the expression of Axin-2, β-catenin, and c-myc.
Western Blot: 1×10^6 Cells of SW480 cells were seeded into 6-well plates overnight. A concentration of 3, 10, 30 μM/L YW2013 and 3, 10 μM/L YW2123 was added after 24 h, medium with 1‰ DMSO was used as the control. Cells were exposed to treatment for 48 h. The dishes was washed twice using precold PBS and 100 μL of RIPA then added. After incubating plates on ice for 15 min, cells were scraped carefully and centrifuged for 10 minutes at 14,000 g at 4° C. immediately. The remaining supernatant and lysates were maintained at −70° C. A Bio-Rad protein assay kit (500-0002) was used to quantitate the cell lysates. The concentration was adjusted to 2 mg/ml. A ratio of 1:1 2× loading buffer was added and the samples were denatured by boiling. Protein samples were separated on 4-15% SDS-polyacrylamide gel (SDS-PAGE) and transferred onto the PVDF membranes (Millipore). Immune complexes were formed by incubation of the proteins with primary antibody β-catenin, c-myc, Axin-2, and GAPDH at 4° C. overnight. A second antibody with horseradish peroxidase (HRP, sigma) conjugated was used then. Blots were developed by enhanced chemiluminescence (Thermo).

SW480 cells [4] = test: colony formation assay; assay type: cell-based, human; settings: 0-30 μM, 2 weeks
Method: (§2) Colony Formation Assay. HT-29 and SW620, SW480 cells were seeded into 6-well dishes with the medium containing 0, 1, 3, 10, 30 μM/L of YW2013 or YW2044, 500 cells/well. After 2 weeks, cells were fixed with 4% paraformaldehyde solution and stained with 0.5% crystal violet for 1 h at room temperature. The images of colonies were captured by microscopy.

SW620 cells [5] = test: colony formation assay; assay type: cell-based, human
Method: as §2

SW620 cells [6] = test: cell cycle analysis by flow cytometry; assay type: cell-based, human; settings: unsynchronized and synchronized, 24 h
Method: SW620 cells were treated with YW2013 at various concentrations (0, 1, 10 μM) to determine the effect of YW2013 on the SW620 cell cycle in an unsynchronized assay (FIG. 27A) and an assay where cells were treated with FBS free medium for 24 hours up to synchronization before adding YW2013 (FIG. 27B).
Cell Cycle Analysis. SW620 cells were plated in 6-well plates for 24 h, and the medium was replaced with medium containing 0, 1, 10, μM/L of YW2013. After incubation for 24 h, the cells were harvested by trypsinization and then fixed with 70% 4° C. ethanol. Intracellular DNA was stained with 50 ng/ml propidium iodide in the dark for 30 min at room temperature, and the percentages of different phase of cells were determined by flow cytometry (BD FACScan; BD Biosciences).

SW620 cells [7] = test: Annexin-V/AAD-7 double-staining apoptosis assay; assay type: cell-based, human; settings: SW620 cells, 0, 3, 10, 30 μM, 48 h
Method: Annexin-V/AAD-7 Double-Staining Assay. SW620 cells were treated with 0, 3, 10, 30 μM/L of YW2013 for 48 h. Then they were harvested and washed with PBS. Apoptotic cells were determined with an FITC Annexin V Apoptosis Detection Kit according to the manufacturer's protocol. Briefly, the cells were washed and subsequently incubated for 15 min at room temperature in the dark in 100 μL of 1× binding buffer containing 2 μL of Annexin V-FITC and 2 μL of AAD-7. After 30 min, apoptosis was analyzed by BD FACSCanto II Flow Cytometer.

[8] = tested on: WiDr, SW620, HT29, HEK_LTV, and T84 cell lines; test: cell proliferation and growth inhibition assay (CCK-8), cell line panel; assay type: cell-based, human; settings: 72 h, FIG. 12
Method: Cell Proliferation and Growth Inhibition Assay. HT-29, HCT-116, WiDr, SW620, SW480, T84, A549, MCF-7, HepG2, Hela cells were cultured in respective growth medium. Cells of log phase were used. 3000-5000 cells/well were seeded in 96-well plates with a 100 μL volume. After 24 h, Compounds were dissolved to […] with DMSO, and a 3-fold serial dilution of the compounds from 5×10^−5 M to […] was performed. 2 μL of compound solution was added to 998 μL of growth medium, the mixture was vortexed sufficiently. 100 μL of the mixture was correspondingly added to the 96-well plate. 2 μL DMSO instead of compound solution was used as the 0% inhibitor control. After coincubation for 72 h, the old medium was removed and 100 μL of 10% CCK-8 in culture medium was added. 2 h later the plates were read in the microplate reader (Bio-Rad) at 450 nm. The data was calculated using Graph Pad Prism version 5.0. The IC50 were fitted using a nonlinear regression model with a sigmoidal dose response.

SW620 xenograft = SW620 xenograft tumor growth; assay type: in vivo, nude mice; settings: i.p. 10 mg/kg or 50 mg/kg each day, 32 day study, vs vehicle
Method: FIG. 37A illustrates tumor growth measured during the study every other day. FIG. 37B illustrates tumor weight that was measured after mouse euthanization. FIG. 37C illustrates the change in mouse body weight during the study.
Six-week old nude mice were injected with 2×10^6 SW620 cells subcutaneously. 10 days after inoculation, mice received an i.p. injection of YW2065 at 10 mg/kg or 50 mg/kg or vehicle each day. The tumor growth (FIG. 37A) was measured every other day. The mice were euthanized at day 32, and tumors were weighed (FIG. 37B). Body weight change was monitored during the study (FIG. 37C).

SW480 cells [9] = test: mitochondrial function and morphology; assay type: cell-based, human
Method: FIG. 38B illustrates ATP production estimated from the OCR measurement. […] DHE fluorescence intensity was measured by using ImageJ. ˜300 cells were counted in each treatment.
Mitochondrial function and morphology was determined in SW480 cells treated with YW2065.

Row | Structure (SMILES) | activity at 1 µM (Wnt/β-catenin pathway; HEK293, 24 h, At 1 μM concentration, remaining Wnt signaling activity, read-out: RLU % (Relative Light Units in reporter gene assays)) [%] | IC50 (Wnt/β-catenin pathway; HEK293, Table 3, values in nM, read-out: IC50) [nM] | apical-to-basolateral and basolateral-to-apical flux [1] | mRNA expression of Wnt regulated genes (Axin-2 and/or cyclin D1) (A549 cells) | mRNA expression of Wnt regulated genes (Axin-2 and/or cyclin D1) (SW620 cells [2]) | mRNA expression of Wnt regulated genes (Axin-2 and/or cyclin D1) (WiDr cells) | expression of Axin-2, β-catenin, and c-myc (SW480 cells [3]) | colony formation (SW480 cells [4]) | colony formation (SW620 cells [5]; 0-30 μM, 2 weeks) | reduction in colony formation in combination (SW620 cells [5]; combined with Gefitinib) | effect on cell cycle (SW620 cells [6]) | apoptosis (SW620 cells [7]) | growth inhibitory activity [8] | tumor growth (SW620 xenograft) | ATP production (estimated from OCR) (SW480 cells [9]) | ROS generation (DHE staining) (SW480 cells [9]) | oxygen consumption rate (OCR) (SW480 cells [9]) | mitochondrial morphology (SW480 cells [9]; 10 μM, 4 hours)
1 | Cc1ccccc1-n1ncc(C(=O)Nc2ccc3ccccc3n2)c1C [YW2013, 5-Methyl-N-(quinolin-2-yl)-1-(o-tolyl)-1H-pyrazole-4-carboxamide] | 1.9 | 9.6 | significant apical-to-basolateral and basolateral-to-apical flux | reduced mRNA expression | reduced mRNA expression | reduced mRNA expression | visibly reduced | dose dependent reduction | dose dependent reduction | markedly increased when combined with Gefitinib | cell cycle arrest in the G1 and S phases | induced apoptosis in SW620 cells in a dose dependent manner | micromolar growth inhibitory activity |  |  |  |  | 
2 | Cc1c(C(=O)Nc2ccc3ccccc3n2)cnn1-c1ccccc1Br [YW2065, 1-(2-Bromophenyl)-5-methyl-N-(quinolin-2-yl)-1H-pyrazole-4-carboxamide] |  |  |  |  |  |  |  |  |  |  |  |  |  | markedly inhibited tumor growth; also recorded: inhibited SW620 xenograft growth | inhibited ATP production as a function of dosage | increased ROS generation | reduced oxygen consumption rate | caused short and punctuated mitochondria
